# Measurements published in patent US20100015058A1, “RADIOLABELED BBN-RGD HETERODIMERS FOR CANCER TARGETING” (STANFORD UNIVERSITY, priority 2008, published 2010).
# How the values were obtained:
# DU-145 tumor = type: in vivo, mice; conditions: integrin αvβ3-positive, low GRPR-expressing tumor
# Protocol: The PC-3 and DU-145 human prostate carcinoma cell lines were purchased from American Type Culture Collection. PC-3 cells were grown in F-12K nutrient mixture (Kaighn's modification) (Invitrogen Corp.), and DU-145 cells were grown in minimum essential medium (Eagle) mixture supplemented with 10% (v/v) fetal bovine serum (Invitrogen) at 37° C. with 5% CO2. The PC-3 and DU-145 tumor models were generated by subcutaneous injection of 5×10^6 tumor cells into the front flank of male athymic nude mice (Harlan).
# No attenuation or scatter correction was applied.
# PC-3 tumor cells [1] = test: Cell uptake assay on PC-3 tumor cells; type: cell-based, human; conditions: PC-3 cells
# Protocol: In the cell uptake experiment, PC-3 cells were seeded into 12-well plates at a density of 5×10^5 cells per well for overnight incubation. Cells were rinsed 3 times with phosphate-buffered saline (PBS), followed by the addition of ^18F-FB-RGD, ^18F-FB-BBN, or ^18F-BBN-RGD to the cultured wells in triplicate (about 2 μCi/well). […] The cell lysate was collected in measurement tubes for counting. The cell uptake was normalized in terms of added radioactivity.
# (§1) The cell uptake studies were performed as we have previously described with some modifications (Chen et al., Mol Imaging Biol. (2004) […]; Cai et al., (2006) J. Nuc. Med. 47: 1172-1180, incorporated herein by reference in their entireties). Briefly, PC-3 cells were seeded into 12-well plates at a density of 5×10^5 cells per well and incubated (about 18 kBq/well) with ^68Ga-labeled tracers at 37° C. for 15, 30, 60, and 120 min. Tumor cells were then washed three times with chilled PBS and harvested by trypsinization with 0.25% trypsin/0.02% EDTA (Invitrogen). The cell suspensions were collected and measured in a y counter (Packard, Meriden, Conn.). The cell uptake was expressed as the percent added dose (% AD) after decay correction. Experiments were performed twice with triplicate wells. For efflux studies, ^68Ga-labeled tracers (about 18 kBq/well) were first incubated with PC-3 cells in 12-well plates for 1 h at 37° C. to allow internalization. Then cells were washed twice with PBS, and incubated with cell culture medium for 15, 30, and 60 min. After washing three times with PBS, cells were harvested by trypsinization with 0.25% trypsin/0.02% EDTA. The cell suspensions were collected and measured in a γ counter. Experiments were performed twice with triplicate wells. Data are expressed as percent added dose after decay correction.
# GRPR = molecular target: T1, GRPR (Homo sapiens, UniProt P30550); test: Displacement cell-binding assay with ^125I-[Tyr4]BBN on PC-3 cells; conditions: PC-3 cells, FIG. 14B
# T1 construct: Experiments were performed on GRPR-expressing PC-3 cells following our previously described procedure; endogenous in cells; host or cells: PC-3 human prostate carcinoma cells
# Protocol: Experiments were performed with triplicate samples.
# BBN as the radioligand. […] Experiments were performed twice with triplicate samples.
# in vivo [2] = conditions: mouse, in vivo, iv, total radioactivity
# Protocol: (a) PET scans and image analysis were performed using a micro-PET R4 rodent model scanner (Siemens Medical Solutions) as reported by Li et al., J. Nucl. Med. (2007) 48: 1162-1171 and Wu et al., J Nucl. Med. (2005) 46: 1707-1718, both of which are incorporated herein by reference in their entireties). […] Five-minute static PET images were then acquired at 0.5, 1, and 2 h after injection. The images were reconstructed by a 2-dimensional ordered-subsets expectation maximum (OSEM) algorithm. No attenuation or scatter correction was applied. […] The 5-min static PET scans were then acquired at 1 hr after injection. For each small-animal PET scan, regions of interest (ROIs) were drawn over the tumor, normal tissue, and major organs by using vendor software (ASI Pro 5.2.4.0) on decay-corrected whole-body coronal images. The average radioactivity concentration (accumulation) within a tumor or an organ was obtained from mean pixel values within the multiple ROI volume, which were converted to counts/mL/min using a conversion factor. Assuming a tissue density of 1 g/mL, the ROIs were converted to counts/g/min, and then divided by the administered activity to obtain an imaging ROI-derived percentage injected dose per gram of tissue (% ID/g).
# For dynamic PET, 30-min scans (1×30 s, 4×1 min, 1×1.5 min, 4×2 min, 5×3 min; total 15 frames) were started 1 min after injection, and two 5-min static PET images were also acquired at 1 h and 2 h after injection. […] For each small-animal PET scan, regions of interest (ROIs) were drawn over the tumor, normal tissue, and major organs using vendor software ASI Pro 5.2.4.0 on decay-corrected whole-body coronal images. The maximum radioactivity concentrations (accumulation) within a tumor or an organ were obtained from mean pixel values within the multiple ROI volume, and were converted to megabecquerels per milliliter per minute using a conversion factor. These values were then divided by the administered activity to obtain (assuming a tissue density of 1 g/ml) an image ROI-derived percent injected dose per gram (% ID/g).
# The images were reconstructed using a 2-dimensional ordered-subsets expectation maximum algorithm without attenuation or scatter correction.
# For each small-animal PET scan, regions of interest were drawn over each tumor, over normal tissue, and over major organs using vendor software (ASI Pro, version 5.2.4.0) on decay-corrected whole-body coronal images. The maximum radioactivity concentration (accumulation) within a tumor or an organ was obtained from the mean pixel values within the multiple-region-of-interest volume, which were converted to MBq/mL/min using a conversion factor. Assuming a tissue density of 1 g/mL, the regions of interest were converted to MBq/g/min and then divided by the administered activity to obtain an imaging region-of-interest-derived percentage injected dose (% ID)/g.
# in vivo [3] = test: in vivo; design: species or system mice; conditions: female, BALB/c, mouse, iv, 3.7 MBq, total radioactivity
# Protocol: The 4T1 murine breast cancer cell line was purchased from American Type Culture Collection and grown in RMPI 1640 medium (Invitrogen Corp.) supplemented with 10% (v/v) fetal bovine serum (Invitrogen) at 37° C. with 5% CO2. The 4T1 tumor model was generated by subcutaneous injection of 5×10^6 tumor cells into the left front flank of female normal BALB/c mice (Harlan).
# Five-minute static PET images were then acquired at 2 h after injection (n=3/group).
# [4] = Small-animal PET of MDA-MB-435 tumor-bearing mice; conditions: female, athymic nude, mouse, in vivo, iv, 3.7 MBq, total radioactivity, MDA-MB435 tumor uptake
# PC-3 tumor cells [5] = type: cell-based, human; conditions: PC-3 cells, 60 min efflux, FIG. 14D
# Protocol: In the cell efflux experiment, PC-3 cells were seeded into 12-well plates at a density of 5×10^5 cells per well for overnight incubation. Cells were rinsed 3 times with PBS and then the appropriate ^18F-labeled peptide tracer was added. The cells were incubated at 37° C. for 2 hr, washed with PBS, and then reincubated with serum-free medium. The cells were washed at different time points (0, 15, 30, 60, 120, 180 min) with PBS and lysed with NaOH-SDS (0.2 M NaOH, 1% SDS). The cell lysate was collected in measurement tubes for counting. Efflux values at different time points were calculated by subtracting retention from 0-min retention, and normalized by dividing the total counts at 0 min.
# as §1
# [6] = male, athymic nude, 5.5 MBq, Tumor uptake
# [7] = male, athymic nude, 5.5 MBq, Blood uptake
# T1 sequence (P30550 whole entry): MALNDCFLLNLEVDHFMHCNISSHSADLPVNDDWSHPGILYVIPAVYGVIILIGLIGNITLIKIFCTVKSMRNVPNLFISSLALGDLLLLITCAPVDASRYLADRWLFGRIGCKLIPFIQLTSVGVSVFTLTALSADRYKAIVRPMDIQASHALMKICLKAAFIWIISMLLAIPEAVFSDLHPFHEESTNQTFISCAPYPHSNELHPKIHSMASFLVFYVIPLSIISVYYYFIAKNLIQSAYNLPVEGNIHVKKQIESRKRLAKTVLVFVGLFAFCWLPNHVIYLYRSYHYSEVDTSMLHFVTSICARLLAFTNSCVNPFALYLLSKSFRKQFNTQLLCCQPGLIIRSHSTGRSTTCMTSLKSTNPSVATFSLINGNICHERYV
tissue uptake at 0.5 h (in vivo [2]; [6]) [%ID/g],tissue uptake at 1 h (in vivo [2]; [6]) [%ID/g],tissue uptake at 4 h (in vivo [2]; [6]) [%ID/g],tissue uptake at 20 h (in vivo [2]; [6]) [%ID/g],"tissue uptake at 1 h (in vivo [2]; 5.5 MBq, Blood uptake) [%ID/g]","tissue uptake at 4 h (in vivo [2]; 5.5 MBq, Blood uptake) [%ID/g]","tissue uptake at 20 h (in vivo [2]; 5.5 MBq, Blood uptake) [%ID/g]","tissue uptake at 0.5 h (in vivo [2]; 5.5 MBq, Kidney uptake) [%ID/g]","tissue uptake at 1 h (in vivo [2]; 5.5 MBq, Kidney uptake) [%ID/g]","tissue uptake at 4 h (in vivo [2]; 5.5 MBq, Kidney uptake) [%ID/g]","tissue uptake at 20 h (in vivo [2]; 5.5 MBq, Kidney uptake) [%ID/g]","tissue uptake at 0.5 h (in vivo [2]; 5.5 MBq, Liver uptake) [%ID/g]","tissue uptake at 1 h (in vivo [2]; 5.5 MBq, Liver uptake) [%ID/g]","tissue uptake at 4 h (in vivo [2]; 5.5 MBq, Liver uptake) [%ID/g]","tissue uptake at 20 h (in vivo [2]; 5.5 MBq, Liver uptake) [%ID/g]",Molecule,also measured
,,,,,,,,,,,,,,,^18F-FB-BBN-RGD: ^18F-fluorobenzoate-labeled heterodimer of BBN(7-14) and c(RGDyK) joined through a glutamate linker,detection of the DU-145 tumor by PET (DU-145 tumor): able to visualize this tumor model
,,,,,,,,,,,,,,,^18F-FB-RGD: ^18F-fluorobenzoate-labeled monomeric RGD peptide c(RGDyK) [reference compound],"cell uptake (PC-3 tumor cells [1]; 37° C., normalized to added radioactivity): < 0.5%; detection of the DU-145 tumor by PET (DU-145 tumor): able to visualize this tumor model"
,,,,,,,,,,,,,,,"N=C(N)NCCC[C@@H]1NC(=O)[C@H](CCCCN)NC(=O)[C@@H](Cc2ccc(O)cc2)NC(=O)[C@H](CC(=O)O)NC(=O)CNC1=O [c(RGDyK), cyclo(Arg-Gly-Asp-D-Tyr-Lys), reference compound]",binding inhibition of ^125I-[Tyr4]BBN with GRPR (GRPR): did not show significant binding inhibition
1.01 ± 0.29,0.83 ± 0.24,0.66 ± 0.21,0.55 ± 0.32,0.43 ± 0.32,0.3 ± 0.11,0.34 ± 0.18,3.37 ± 0.89,2.13 ± 0.85,1.43 ± 0.68,0.98 ± 0.48,2.86 ± 1.06,2.68 ± 1.15,2.15 ± 0.79,1.67 ± 0.69,"N=C(N)NCCC[C@@H]1NC(=O)[C@H](CCCCNC(=S)Nc2ccc(C[C@H]3CN(CC(=O)O)CCN(CC(=O)O)CCN3CC(=O)O)cc2)NC(=O)[C@@H](Cc2ccc(O)cc2)NC(=O)[C@H](CC(=O)O)NC(=O)CNC1=O [^64Cu-NOTA-RGD, metal not drawn, reference compound]",tissue uptake at 2 h (in vivo [3]): 0.65 ± 0.07 %ID/g
,,,,,,,,,,,,,,,"CSCC[C@H](NC(=O)[C@H](CC(C)C)NC(=O)[C@H](Cc1c[nH]cn1)NC(=O)CNC(=O)[C@@H](NC(=O)[C@H](C)NC(=O)[C@H](Cc1c[nH]c2ccccc12)NC(=O)[C@H](CCC(N)=O)NC(=O)CCCCCNC(=S)Nc1ccc(C[C@H]2CN(CC(=O)O)CCN(CC(=O)O)CCN2CC(=O)O)cc1)C(C)C)C(N)=O [^68Ga-NOTA-BBN, metal not drawn, reference compound]","tissue uptake at 0.5 h (in vivo [2]; male, athymic nude, 3.7 MBq, liver uptake (highest)): 2 %ID/g; tissue uptake at 1 h [4]: 0.38 ± 0.5 %ID/g; cell-associated tracer (cell retention) (PC-3 tumor cells [5]): 6.70±1.00 % AD"
,,,,,,,,,,,,,,,"N=C(N)NCCC[C@@H]1NC(=O)[C@H](CCCCNC(=S)Nc2ccc(C[C@H]3CN(CC(=O)O)CCN(CC(=O)O)CCN3CC(=O)O)cc2)NC(=O)[C@@H](Cc2ccc(O)cc2)NC(=O)[C@H](CC(=O)O)NC(=O)CNC1=O [^68Ga-NOTA-RGD, metal not drawn, reference compound]",tissue uptake at 1 h [4]: 1.63 ± 0.59 %ID/g
2.28 ± 0.35,1.25 ± 1.03,0.56 ± 0.4,0.44 ± 0.39,0.23 ± 0.11,0.19 ± 0.1,0.15 ± 0.05,3.55 ± 1.17,1.5 ± 0.39,0.76 ± 0.45,0.5 ± 0.44,10.4 ± 2.27,8.85 ± 1.61,6.35 ± 0.57,4.2 ± 0.53,"CSCC[C@H](NC(=O)[C@H](CC(C)C)NC(=O)[C@H](Cc1c[nH]cn1)NC(=O)CNC(=O)[C@@H](NC(=O)[C@H](C)NC(=O)[C@H](Cc1c[nH]c2ccccc12)NC(=O)[C@H](CCC(N)=O)NC(=O)CCCCCNC(=S)Nc1ccc(C[C@H]2CN(CC(=O)O)CCN(CC(=O)O)CCN2CC(=O)O)cc1)C(C)C)C(N)=O [^64Cu-NOTA-BBN, metal not drawn, reference compound]",tissue uptake at 0.5 h (in vivo [2]; [7]): < 1 %ID/g; tissue uptake at 24 h (in vivo [2]; [6]): 0.44 ± 0.39 %ID/g; tissue uptake at 2 h (in vivo [3]): 0.33 ± 0.18 %ID/g
3.05 ± 0.56,1.87 ± 0.41,1.05 ± 0.49,0.97 ± 0.24,0.69 ± 0.24,0.45 ± 0.2,0.31 ± 0.13,5.99 ± 1.61,3.4 ± 1.25,2.51 ± 0.47,1.64 ± 0.34,3.4 ± 1.42,3.05 ± 1.07,2.33 ± 0.88,1.74 ± 0.9,"CSCC[C@H](NC(=O)[C@H](CC(C)C)NC(=O)[C@H](Cc1c[nH]cn1)NC(=O)CNC(=O)[C@@H](NC(=O)[C@H](C)NC(=O)[C@H](Cc1c[nH]c2ccccc12)NC(=O)[C@H](CCC(N)=O)NC(=O)CCCCCNC(=O)CC[C@H](NC(=O)CN1CCN(CC(=O)O)CCN(CC(=O)O)CCN(CC(=O)O)CC1)C(=O)NCCCC[C@@H]1NC(=O)[C@@H](Cc2ccc(O)cc2)NC(=O)[C@H](CC(=O)O)NC(=O)CNC(=O)[C@H](CCCNC(=N)N)NC1=O)C(C)C)C(N)=O [^64Cu-DOTA-RGD-BBN, metal not drawn]",tissue uptake at 0.5 h (in vivo [2]; [7]): 1.15 ± 0.49 %ID/g; cell uptake value (PC-3 tumor cells [1]; 120 min): 3.70 % added dose
